Experimental data taken from ChEMBL document CHEMBL1201862, “PubChem BioAssay data set” (2004).
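96-well plates; 48 h exposure; 5 concentrations. Endpoints by linear interpolation between flanking doses. Not reached: highest tested concentration assigned. The concentration for 50% growth inhibition is given as GI50.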 Calls of active or inactive are those of the source. No stated cut-off is given here; in the data, active = GI50 up to about 1.1 µM and inactive = higher.

What was measured:
Assay in all cases: NCI anticancer screen, dose series, 48 h
A498 = system: A498
ACHN = system: ACHN
EKVX = system: EKVX
HL-60 = system: HL-60
Hs-578T = system: Hs-578T
KM12 = system: KM12
M14 = system: M14
MDA-N = system: MDA-N
Malme-3M = system: Malme-3M
NCI-H23 = system: NCI-H23
NCI-H522 = system: NCI-H522
OVCAR-3 = system: OVCAR-3
RPMI-8226 = system: RPMI-8226
SF-268 = system: SF-268
SK-OV-3 = system: SK-OV-3
SR = system: SR
SW-620 = system: SW-620
T47D = system: T47D
UACC-62 = system: UACC-62
UO-31 = system: UO-31

Structure (SMILES) | GI50 (A498) | GI50 (ACHN) | GI50 (EKVX) | GI50 (HL-60) | GI50 (Hs-578T) | GI50 (KM12) | GI50 (M14) | GI50 (MDA-N) | GI50 (Malme-3M) | GI50 (NCI-H23) | GI50 (NCI-H522) | GI50 (OVCAR-3) | GI50 (RPMI-8226) | GI50 (SF-268) | GI50 (SK-OV-3) | GI50 (SR) | GI50 (SW-620) | GI50 (T47D) | GI50 (UACC-62) | GI50 (UO-31)
CCCCCCCCCCCCCCCCCCNc1ccn(C2OC(CO)C(OP(=O)(O)OCC(COP(=O)(O)OCC3OC(n4cc(F)c(NCCCCCCCCCCCCCCCCCC)nc4=O)CC3O)OC(=O)CCCCCCCCCCCCCCC)C2O)c(=O)n1 (stereo not given) | > 100 µM (inactive) | > 100 µM (inactive) | > 100 µM (inactive) | 67.1 µM (inactive) | > 100 µM (inactive) | > 100 µM (inactive) | > 100 µM (inactive) | > 100 µM (inactive) | > 100 µM (inactive) | > 100 µM (inactive) | > 100 µM (inactive) | > 100 µM (inactive) | > 100 µM (inactive) | > 100 µM (inactive) | > 100 µM (inactive) | > 100 µM (inactive) | > 100 µM (inactive) | > 100 µM (inactive) | > 100 µM (inactive) | > 100 µM (inactive)
CC(C)(C)OC(=O)N1CC(CCl)c2ccc(O)cc21 (stereo not given) | 2.06 µM (inactive) | 1.11 µM (active) | 2.75 µM (inactive) | 1.87 µM (inactive) | 2.8 µM (inactive) | 2.1 µM (inactive) | 1.72 µM (inactive) | 1.86 µM (inactive) | 1.64 µM (inactive) | 1.04 µM (active) | 0.612 µM (active) | 2.51 µM (inactive) | 1.75 µM (inactive) | 1.58 µM (inactive) | 5.05 µM (inactive) | 1.45 µM (inactive) | 2.59 µM (inactive) | 3.03 µM (inactive) | 2.01 µM (inactive) | 2.29 µM (inactive)
CCNc1cc2c3c(c1)CCN3CCC2 | > 10 µM (inactive) | > 10 µM (inactive) | 5.86 µM (inactive) | 3.23 µM (inactive) | > 10 µM (inactive) | 5.6 µM (inactive) | > 10 µM (inactive) | > 10 µM (inactive) | > 10 µM (inactive) | > 10 µM (inactive) | 5.98 µM (inactive) | > 10 µM (inactive) | 3.51 µM (inactive) | > 10 µM (inactive) | > 10 µM (inactive) | 5.32 µM (inactive) | 6.3 µM (inactive) | 4.71 µM (inactive) | > 10 µM (inactive) | > 10 µM (inactive)
CC(C)OC(=S)Nc1ccc(Cl)c(/C=N/OC(C)(C)C)c1 | 12.6 µM (inactive) | 15.1 µM (inactive) | 15.4 µM (inactive) | 16.4 µM (inactive) | 16.6 µM (inactive) | 12.5 µM (inactive) | 19.9 µM (inactive) | 22.9 µM (inactive) | 16.7 µM (inactive) | 18.5 µM (inactive) | 15.7 µM (inactive) | 18.5 µM (inactive) | 18.1 µM (inactive) | 19.3 µM (inactive) | 19.8 µM (inactive) | 20.4 µM (inactive) | 16.6 µM (inactive) | 15.7 µM (inactive) | 16.4 µM (inactive) | 13.9 µM (inactive)
S=C(N/N=C(/c1ccccc1)c1ccccn1)Nc1ccccc1Cl | 1.13 µM (inactive) | 0.0153 µM (active) | 0.0785 µM (active) | < 0.0865 µM (active) | 2.49 µM (inactive) | 0.0649 µM (active) | < 0.0224 µM (active) | 0.43 µM (active) | 0.0681 µM (active) | < 0.0175 µM (active) | < 0.0446 µM (active) | < 0.0103 µM (active) | < 0.0448 µM (active) | 0.179 µM (active) | 0.0266 µM (active) | < 0.0189 µM (active) | < 0.01 µM (active) | < 0.01 µM (active) | 0.101 µM (active) | 0.163 µM (active)
CCOP(=O)(OCC)/C(C#N)=C/c1cccn1N(C)C | > 100 µM (inactive) | > 100 µM (inactive) | > 100 µM (inactive) | > 100 µM (inactive) | > 100 µM (inactive) | > 100 µM (inactive) | > 100 µM (inactive) | 0.0356 µM (active) | > 100 µM (inactive) | > 100 µM (inactive) | > 100 µM (inactive) | > 100 µM (inactive) | > 100 µM (inactive) | > 100 µM (inactive) | > 100 µM (inactive) | > 100 µM (inactive) | > 100 µM (inactive) | 47.6 µM (inactive) | > 100 µM (inactive) | > 100 µM (inactive)
O=C(c1cccs1)N1CCc2ccccc2C1 | > 100 µM (inactive) | > 100 µM (inactive) | 97.1 µM (inactive) | 30.7 µM (inactive) | 85.5 µM (inactive) | 74.8 µM (inactive) | > 100 µM (inactive) | 32.2 µM (inactive) | > 100 µM (inactive) | > 100 µM (inactive) | > 100 µM (inactive) | > 100 µM (inactive) | 85.9 µM (inactive) | > 100 µM (inactive) | > 100 µM (inactive) | 97.5 µM (inactive) | > 100 µM (inactive) | > 100 µM (inactive) | > 100 µM (inactive) | > 100 µM (inactive)
